Measurements: patent US20070010568A1, “Substituted azabicyclo hexane derivatives as muscarinic receptor antagonists” (priority 2003, published 2007)

Columns and labels:
M2 muscarinic receptor = target: T1, M2 muscarinic receptor (Rattus norvegicus, UniProt P10980); assay: Radioligand binding assay, [3H]-N-methylscopolamine, rat heart membranes; conditions: [3H]NMS, 24-25° C., read-out: Receptor Binding Assay M2 (pKi) (converted)
T1 construct: Submandibular glands and heart were isolated and placed in ice cold homogenising buffer; from tissue; host or cells: rat heart membrane homogenate
T1 sequence (P10980 1-466): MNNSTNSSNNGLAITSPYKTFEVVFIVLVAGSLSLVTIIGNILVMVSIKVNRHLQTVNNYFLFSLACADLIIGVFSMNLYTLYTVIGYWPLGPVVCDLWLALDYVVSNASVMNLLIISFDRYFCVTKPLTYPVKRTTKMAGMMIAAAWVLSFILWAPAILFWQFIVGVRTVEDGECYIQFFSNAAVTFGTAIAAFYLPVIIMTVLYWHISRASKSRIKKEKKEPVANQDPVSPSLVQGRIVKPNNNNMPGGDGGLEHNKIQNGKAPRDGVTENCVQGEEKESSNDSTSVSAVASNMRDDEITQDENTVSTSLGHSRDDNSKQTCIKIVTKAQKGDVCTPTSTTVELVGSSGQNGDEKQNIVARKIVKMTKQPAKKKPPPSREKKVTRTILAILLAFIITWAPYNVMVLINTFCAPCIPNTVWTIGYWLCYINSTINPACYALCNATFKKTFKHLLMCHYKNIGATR
Method: (§1) The affinity of test compounds for M2 and M3 muscarinic receptor subtypes was determined by [^3H]-N-methylscopolamine binding studies using rat heart and submandibular gland respectively as described by Moriya et al., (Life Sci., 1999; 64 (25): 2351-2358).
(§2) Membrane preparation: Submandibular glands and heart were isolated and placed in ice cold homogenising buffer (EPES 20 mM, 10 mM EDTA, pH 7.4) immediately after sacrifice. The tissues were homogenised in 10 volumes of homogenising buffer and the homogenate was filtered through two layers of wet gauze and filtrate was centrifliged at 500 g for 10 min. The supernatant was subsequently centrifuged at 40,000 g for 20 min. The pellet thus obtained was resuspended in same volume of assay buffer (HEPES 20 mM, EDTA 5 mM, pH 7.4) and were stored at −70° C. until the time of assay.
(§3) Ligand binding assay: The compounds were dissolved and diluted in DMSO. The membrane homogenates (150-250 μg protein) were incubated in 250 μl of assay buffer (HEPES 20 mM, pH 7.4) at 24-25° C. for 3 h. Non-specific binding was determined in the presence of 1 μM atropine. The incubation was terminated by vaccum filtration over GF/B fiber filters(Wallac). The filters were then washed with ice cold 50 mM Tris HCl buffer (pH 7.4). The filter mats were dried and bound radioactivity retained on filters was counted. The IC50 & Kd were estimated by using the non-linear curve fitting program using G Pad Prism software. The value of inhibition constant Ki was calculated from competitive binding studies by using Cheng & Prusoff equation (Biochem Pharmacol, 1973,22: 3099-3108), Ki=IC50/(1+L/Kd), where L is the concentration of [^3H]NMS used in the particular experiment. pKi=−log Ki Functional Experiments Using Isolated Rat Bladder: Methodology: […]

M3 muscarinic receptor = target: T2, M3 muscarinic receptor (Rattus norvegicus, UniProt P08483); assay: Radioligand binding assay, [3H]-N-methylscopolamine, rat submandibular gland membranes; conditions: [3H]NMS, 24-25° C., read-out: Receptor Binding Assay M3 (pKi) (converted)
T2 construct: Submandibular glands and heart were isolated and placed in ice cold homogenising buffer; from tissue; host or cells: rat submandibular gland membrane homogenate
Method: as §1, §2, §3

T2 sequence (P08483 whole entry): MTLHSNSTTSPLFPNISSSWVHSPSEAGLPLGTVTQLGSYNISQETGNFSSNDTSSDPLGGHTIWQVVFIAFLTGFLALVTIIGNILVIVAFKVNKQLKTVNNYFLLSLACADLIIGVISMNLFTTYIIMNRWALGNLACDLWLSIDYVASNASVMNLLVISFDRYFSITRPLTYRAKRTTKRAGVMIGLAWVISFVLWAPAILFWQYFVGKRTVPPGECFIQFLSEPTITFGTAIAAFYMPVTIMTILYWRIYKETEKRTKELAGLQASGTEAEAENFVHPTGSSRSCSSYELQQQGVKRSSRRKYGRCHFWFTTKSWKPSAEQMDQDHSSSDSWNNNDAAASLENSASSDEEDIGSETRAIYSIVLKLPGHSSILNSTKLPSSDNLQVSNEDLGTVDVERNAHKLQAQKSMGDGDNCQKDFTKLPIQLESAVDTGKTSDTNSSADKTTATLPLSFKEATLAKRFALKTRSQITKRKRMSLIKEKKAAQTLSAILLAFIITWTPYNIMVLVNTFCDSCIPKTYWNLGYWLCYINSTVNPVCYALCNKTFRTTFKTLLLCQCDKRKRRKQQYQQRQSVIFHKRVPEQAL

| Ki (M2 muscarinic receptor) [µM] | Ki (M3 muscarinic receptor) [µM] | Compound |
| --- | --- | --- |
| > 1 | > 1 | O=C(CC(c1ccccc1)(c1ccccc1)c1ccccc1)N[C@H]1[C@@H]2CN(Cc3ccccc3)C[C@@H]21 [Compound No. 1, (1α, 5α, 6α)-N-[3-benzyl-3-azabicyclo[3.1.0]-hexyl-6-amino-yl]-3,3,3-triphenylpropionaniide] |
| > 1 | > 1 | CC(C)=CCCN1C[C@@H]2[C@H](C1)[C@H]2NC(=O)CC(c1ccccc1)(c1ccccc1)c1ccccc1 [Compound No. 2, (1α, 5α, 6α)-N-[3-(4-methyl-3-pentenyl)-3-azabicyclo[3.1.0]-hexyl-6-amino-yl]-3,3,3-triphenyl propionamide] |
| > 1 | > 1 | O=C(CC(c1ccccc1)(c1ccccc1)c1ccccc1)N[C@H]1[C@@H]2CN(CCc3ccc4c(c3)OCO4)C[C@@H]21 [Compound No. 3, (1α, 5α, 6α)-N-[3-{2-(3,4-methylenedioxy-phenyl)ethyl}-3-azabicyclo [3.1.0]-hexyl-6-amino-yl]-3,3,3-triphenylpropionamide] |
| > 1 | > 1 | O=C(CC(c1ccccc1)(c1ccccc1)c1ccccc1)N[C@H]1[C@@H]2CN(CC(=O)c3ccc4c(c3)CCO4)C[C@@H]21 [Compound No. 4, (1α, 5α, 6α)-N-[3-{2-oxo-2-(2,3-dihydrobenzofuran-5-yl)ethyl}-3-azabicyclo[3.1.0]-hexyl-6-amino-yl]-3,3,3-triphenyl propionamide] |
| > 1 | > 1 | O=C(CCNC(=O)CNC(=O)CC(c1ccccc1)(c1ccccc1)c1ccccc1)NC[C@@H]1[C@H]2CN(Cc3ccccc3)C[C@@H]12 [Compound No. 5, (1α, 5α, 6α)-N-[(3-oxopropyl)amino-2-oxoethyl-3-benzyl-3-azabicyclo [3.1.0]-hexyl-6-aminomethyl]-3,3,3-triphenyl propionamide] |
| > 1 | > 1 | O=C(CNC(=O)CC(c1ccccc1)(c1ccccc1)c1ccccc1)NCCC(=O)N[C@H]1[C@@H]2CN(Cc3ccccc3)C[C@@H]21 [Compound No. 6, (1α, 5α, 6α)-N-[(3-oxopropyl]amino-2-oxoethyl-3-benzyl-3-azabicyclo [3.1.0]-hexyl-6-amino-yl]-3,3,3-triphenyl propionamide] |
| > 1 | > 1 | CCCOC(C(=O)N[C@H]1[C@@H]2CNC[C@@H]21)(c1ccc(F)cc1)c1ccc(F)cc1 [Compound No. 8, (1α, 5α, 6α)-N-[3-azabicyclo[3.1.0]-hexyl-6-amino-yl]-2-propyloxy-2,2-bis-4-fluorophenyl acetamide] |

| Compound | Ki (M2 muscarinic receptor) [µM] | Ki (M3 muscarinic receptor) [µM] |
| --- | --- | --- |
| O=C(N[C@H]1[C@@H]2CNC[C@@H]21)C(O)(c1ccc(F)cc1)c1ccc(F)cc1 [Compound No. 7, (1α, 5α, 6α)-N-[3-azabicylo[3.1.0]-hexyl-6-amino-yl]-2-hydroxy-2,2-bis-4-fluorophenyl acetamide] | > 1 | > 1 |
